Assay results taken from US20110112184A1, “COMPOUNDS WITH GLYCIDIC STRUCTURE ACTIVE IN THE THERAPY OF SYSTEMIC AND LOCAL INFLAMMATION” (priority 2008, published 2011).

Assays:
[1] = system: HT29 cells; test: LPS-induced IL-8 production by HT29 intestinal epithelial cells (ELISA); type: cell-based, human; details: compounds 50 mg/L to 5 μg/L for 18 h, then LPS (Salmonella enterica abortus equi) 1 μg/ml 6 h
Description: FIG. 2A. LPS-induced IL-8 production by HT29 cells in the absence or presence of the indicated concentrations of compound (c) 4, 5, 6, 7, 4′, 14.
The effect of the compounds on the release of IL-8 or KC was tested upon stimulation of intestinal epithelial cells (IEC) with LPS from Salmonella enterica abortus equi. The human IEC line HT29 was used for these experiments. Cells were cultured for 18 h in medium alone or in medium additioned with different concentrations of compounds 4, 5, 6, 7, 4′ and 14 (from 50 mg/L to 5 μg/L). Then, cells were stimulated for 6 h with LPS (1 μg/ml). […] Similar experiments were performed on a human pneumocyte type II cell line (A549) using compound 4 and LPS from Pseudomonas aeruginosa.

[2] = system: mice treated with LPS; test: Serum KC levels after oral LPS in mice (diarrhoea model); type: in vivo; details: compound 4 25 μg/kg oral, then LPS 50 mg/kg oral, serum after 4 h, ELISA
Description: FIG. 3. Serum levels of cytokine KC from mice treated with LPS alone or LPS with comp 4. Untr=untreated; LPS=Mice treated with LPS alone; comp 4+LPS=Mice treated with comp 4+LPS; comp 4=Mice treated with comp 4 alone.
We tested whether oral pretreatment of mice with the compound 4 interferes with the increase in KC serum levels induced by LPS administration to mice. The dosage of compound 4 chosen for all in vivo experiments was 25 μg/kg. Mice (10/group) were treated orally with compound 4 (25 μg/kg), followed by oral treatment with LPS (50 mg/kg). Serum samples were collected after 4 h, and KC levels were evaluated by ELISA.

[3] = system: mice treated with doxorubicin; test: Acute doxorubicin-induced enterocyte injury in mice; type: in vivo; details: doxorubicin 27 mg/kg i.p. + compound 4 25 μg/kg orally; 72 h
Description: FIG. 11. Serum levels of KC in untreated mice or mice submitted to acute treatment with doxorubicin or chronic treatment with doxorubicin and 5-fluorouracil. Untr=Untreated; Doxo 27 mg=Mice submitted to acute treatment with doxorubicin; Doxo 27 mg comp 4=Mice submitted to acute treatment with doxorubicin and concomitant p.o. administration of comp 4; Doxo cron=Mice submitted to chronic treatment with doxorubicin and 5-fluoruracil; Doxo cron comp 4=Mice submitted to chronic treatment with doxorubicin and 5-fluoruracil and concomitant p.o. administration of compound 4.
FIG. 12. Histology of the epithelium of the small intestine in mice after acute treatment with doxorubicin (DOXO) or acute treatment with doxorubicin and concomitant administration of compound 4 (comp 4+DOXO).
For the first model, doxorubicin was administered to mice by intraperitoneal injection (27 mg/kg). Some of the mice were administered at the same time compound 4 (25 μg/kg orally). Recovery of the blood for the determination of circulating KC levels and subsequent sacrifice of the animals were performed at 72 h after treatment.

[4] = system: DSS-treated FVB mice; test: Acute colitis (acute Crohn-like disease) induced by DSS 2% in mice; type: in vivo; details: acute model
Description: FIG. 5. TNF-α levels in mice treated with DSS alone or DSS+comp 4. Untr=Untreated; DSS=Mice treated with DSS alone; DSS comp 4=Mice treated with DSS and comp 4;=Mice treated comp 4 alone.
In mice induced for acute Crohn's disease, modifications of epithelial permeability of the intestine were determined by measuring intestinal transmembrane resistance using the Ussing chamber. For this purpose, 2-months old FVB mice were administered dextran sulfate sodium (DSS) 2% in the drinking water for 7 days (Wirtz et al, 2007). […] Eventually, the serum levels of the inflammatory cytokine TNF-α were measured in mice treated with DSS alone or with DSS+4.

[5] = Stability of compound 4 towards pH variations by 1H-NMR; type: physicochemical; details: D2O, room temperature, spectra at 10 min, 4.5 h and 24 h
Description: Stability of compound 4 towards pH variations is evaluated through ^1H-NMR analysis. Two samples are prepared, one in acidic conditions and one in basic conditions; the first is prepared by dissolving 2.3 mg in 550 μl of D2O and adjusting to pH 1.2 through DCl addition, while the second is prepared by dissolving 3 mg of compound 4 in 550 μl of D2O and adjusting to pH 12.5 through NaOD addition. The two samples are kept at room temperature and ^1H-NMR spectra thereof are recorded at time 10 min, 4.5 h and 24 h.
FIG. 1. ^1H-NMR spectra of compound 4 at pH 12.5 and at pH 1.2.

[6] = system: DSS-treated mice; test: Chronic Crohn-like disease induced by 4 cycles of DSS 2% in mice; type: in vivo; details: chronic model
From the text: FIG. 6. Colon length in untreated mice or mice treated with DSS+comp 4. Untr=Untreated; DSS=Mice treated with DSS alone; DSS comp 4=Mice treated with DSS and comp 4;=Mice treated comp 4 alone.
FIG. 7. TNF-α content in the protein extract of the colon of untreated mice or mice treated with DSS+comp 4. Untr=Protein extract from colon of untreated mice; DSS=Protein extract from colon of mice treated with DSS alone; DSS comp 4=Protein extract from colon of mice treated with DSS+comp 4;=Protein extract from colon of mice treated with comp 4 alone.
Chronic Crohn-like disease was induced in mice by administration of DSS 2% for 4 cycles, with each cycle consisting in exposition to DSS 2% for 7 days, followed by 14 days of regular water. In mice that were administered also compound 4, last exposition of DSS was followed by p.o. administration of compound 4 at 25 μg/kg, 4 times/week for 3 weeks.
One hallmark of the chronic Crohn's disease model is the shortening of the colon.
Another parameter that was measured in this setting was the TNF-α content in the protein extract of the colon of mice. DSS 2% alone led to a dramatic increase of the TNF-α levels in the protein extract, while co-treatment with compound 4 led to normalization of these levels.

## CN(C)c1cccc2c(S(=O)(=O)NCC[C@H]3O[C@H](CO)[C@@H](O)[C@H](O)[C@H]3O)cccc12 [Compound 4, 5-(Dimethylamino)-N-[2′-(α-D-glucopyranosyl)ethyl]-1-naphthalenesulphonamide]
[1]
  production of IL-8 induced by LPS: significantly inhibited
[2]
  Serum KC levels: comparable to those of untreated mice
[3]
  Histology of the epithelium of the small intestine: normal morphology
  circulating KC levels: strongly reduced
[4]; DSS 2% + compound 4
  Serum levels of TNF-α (increase induced by DSS 2%): strongly inhibited
[4]; DSS 2% in drinking water 7 days + compound 4, Ussing chamber
  Intestinal transmembrane resistance: 49 Ω × cm^2
[5]; pH 1.2 (DCl)
  Stability towards pH (degradation by 1H-NMR): no degradation
[5]; pH 12.5 (NaOD)
  Stability towards pH (degradation by 1H-NMR): no degradation
[6]; 4 cycles DSS 2% + compound 4 25 μg/kg p.o. 4 times/week for 3 weeks
  Intestinal transmembrane resistance: 47 Ω × cm^2
[6]; DSS 2% + compound 4
  TNF-α content in the protein extract of the colon: normalization
  mean length of the colon: 11.55 cm
